The values below come from paper PMC7464559, “Synthesis, Optimization, Antifungal Activity, Selectivity, and CYP51 Binding of New 2-Aryl-3-azolyl-1-indolyl-propan-2-ols” (Pharmaceuticals, 2020).

≈ marks a conversion by molar mass, not a printed value. Like-named read-outs stand apart in the source and are kept apart here. Where only a bound is given, the exact number is not on record here.

A short description of one series: MRC5 toxicity assay. It is filed as cell-based, human. Conditions: human, MRC-5 cells, 96-h incubation, mean of triplicate, read-out: Cytotoxicity IC50 on MRC-5 cells. Here is the method:
The cytotoxicity of compounds was studied with human fibroblast (MRC5). Cells were grown in RPMI 1640 medium (Sigma-Aldrich, Saint-Quentin Fallavier, France) supplemented with 10% fetal bovin serum (Sigma–Aldrich). Drugs were tested at three concentrations (100, 10, and 1 µM) in triplicate. After a 96-h incubation time, cytotoxicity was measured on the Fluorolite 1000 (Dynatech, Guyancourt, France) after a 4-h incubation time with Uptiblue® (Interchim, Montluçon, France). Inhibitory concentration 50 is a mean of triplicate values. A toxicity index was determined as follow: IC50 against MRC5/Geometric mean of the MICs against Candida spp..

In series [1] the test system is CA98002 (Candida albicans). Nature of the series: Anti-Candida in vitro assay, CA98002. The series is classed as cell-based. Conditions: Candida albicans CA98002, mean of triplicate; read-out: MIC (IC80) CA98002. The procedure:
(§1) Test fungal strains were obtained from the American Type Culture Collection (ATCC) or were clinical isolates from the Laboratory of Parasitology and Medical Mycology, Centre Hospitalier Universitaire (CHU) of Nantes. The strains were maintained on Sabouraud agar slants and were subcultured 24 h before used. The activity of the target compounds 8a–g and 11a–m was determined by the method previously described. Briefly, molecules were diluted in RPMI 1640 medium supplemented with 0.165 M morpholinopropanesulphonic acid (Sigma-Aldrich, Saint-Quentin Fallavier, France), 2% glucose, and antibiotics. Candida suspensions were prepared in RPMI 1640 medium (Sigma-Aldrich, Saint-Quentin Fallavier, France) adjusted to give a final concentration of 10^3 cells/mL, and a 96-well microplate (Nunc, D. Dutscher, Brumath, France) was seeded with 100 µL. Each concentration of molecules (100 µL) to be tested was added (in triplicate) and plates were incubated at 37 °C for 24 h. The cellular viability was evaluated on the Fluorolite 1000 (Dynatech, France) with an excitation at 550 nm and an emission at 590 nm after a 4 h incubation with 10 µL of Alamar Blue®. […] MIC was expressed as the mean of the triplicate values. KTC and FLC were used as standards.

The next series has as its system CK98003 (Candida krusei). Nature of the series: Anti-Candida in vitro assay, CK98003. The series is classed as cell-based. The following applies: Pichia kudriavzevii; Candida krusei CK98003, mean of triplicate; read-out: MIC (IC80) CK98003. Here is the method:
as §1

The subject of the next series is CYP11B1. Also noted: method as in PMID 7663533. The following applies: cited from earlier work.
In series [2] the test system is CL98001 (Candida lusitaniae). Nature of the series: Anti-Candida in vitro assay, CL98001. It is filed as cell-based. The following applies: Clavispora lusitaniae; Candida lusitaniae CL98001, mean of triplicate; read-out: MIC (IC80) CL98001. Here is the method: as §1
Series [3] deals with ATCC2091 Candida albicans strain. Nature of the series: Anti-Candida in vitro assay, ATCC2091. It is filed as cell-based. Conditions: Candida albicans ATCC2091, mean of triplicate; read-out: MIC (IC80) ATCC2091. Here is the method:
as §1

Series [4] relates to CA98005 (Candida albicans). Nature of the series: Anti-Candida in vitro assay, CA98005. It is filed as cell-based. The following applies: Candida albicans CA98005, mean of triplicate; read-out: MIC (IC80) CA98005. The procedure:
as §1

For another series, the system named is C. albicans CA98001. Nature of the series: Anti-Candida in vitro assay (Alamar Blue), C. albicans CA98001. The series is classed as cell-based. The following applies: MIC = IC80, 24 h at 37 °C, mean of triplicate; for MIC: Candida albicans, CA98001, 24 h. Here is the method:
as §1

Series [5] relates to ATCC90018 Candida parapsilosis strain. Nature of the series: Anti-Candida in vitro assay, ATCC90018. The series is classed as cell-based. The following applies: Lodderomyces parapsilosis; Candida parapsilosis ATCC90018, mean of triplicate; read-out: MIC (IC80) ATCC90018. The procedure:
as §1

Series [6] relates to ATCC6258 Candida krusei strain. Nature of the series: Anti-Candida in vitro assay, ATCC6258. The series is classed as cell-based. The following applies: Pichia kudriavzevii; Candida krusei ATCC6258, mean of triplicate; read-out: MIC (IC80) ATCC6258. The procedure: as §1
The test system of another series is CK98002 (Candida krusei). Nature of the series: Anti-Candida in vitro assay, CK98002. It is filed as cell-based. The following applies: Pichia kudriavzevii; Candida krusei CK98002, mean of triplicate; read-out: MIC (IC80) CK98002. The procedure:
as §1

A further series deals with CYP11B2. Also noted: method as in PMID 21193036. Conditions: another similar study; cited from earlier work.

The IC50 is the concentration that inhibits the measured activity by half. The term MIC denotes the least concentration at which growth counts as inhibited. Turning to `OC(Cn1cncn1)(Cn1cncn1)c1ccc(F)cc1F` [FLC, fluconazole, reference compound], in “MRC5 toxicity assay” (MRC-5 human fetal lung fibroblast cells), the IC50 at 96 h is greater than 100 µM. The minimum inhibitory concentration (MIC) in series [1] is 1 µg/mL (≈ 3.27 µM); in the series on CK98003 (Candida krusei) it was 6.7 µg/mL (≈ 21.9 µM); in series [2] it was 0.55 µg/mL (≈ 1.8 µM); in series [3], 0.07 µg/mL (≈ 0.229 µM); in [4], 0.57 µg/mL (≈ 1.86 µM); against C. albicans CA98001 it was 0.02 µg/mL (≈ 0.0653 µM). The figures for the MIC (in series [5]; in [6]; with CK98002 (Candida krusei)) were 0.6 µg/mL (≈ 1.96 µM), 7.5 µg/mL (≈ 24.5 µM) and 2 µg/mL (≈ 6.53 µM), respectively. Also, the “CYP11B1 inhibition” value with CYP11B1 is on record as “minor inhibitor”. The “MIC (= IC80) C. albicans CA98001” value against C. albicans CA98001 is on record as 0.02 µg/mL (≈ 0.0653 µM).
`CC(=O)N1CCN(c2ccc(OCC3COC(Cn4ccnc4)(c4ccc(Cl)cc4Cl)O3)cc2)CC1` (stereo not drawn) [KTC, ketoconazole, reference compound]: the IC50 at 96 h in “MRC5 toxicity assay” is 69.1 µM. For the same compound, the MIC in series [1] came out at 0.009 µg/mL (≈ 0.0169 µM); in the series on CK98003 (Candida krusei) it was 0.43 µg/mL (≈ 0.809 µM); in [2], 0.007 µg/mL (≈ 0.0132 µM); in series [3] it was 0.008 µg/mL (≈ 0.0151 µM); in series [4], 0.006 µg/mL (≈ 0.0113 µM); against C. albicans CA98001, 0.005 µg/mL (≈ 0.00941 µM). Further, the MIC in series [5] turned out to be 0.064 µg/mL (≈ 0.12 µM); in series [6], 0.079 µg/mL (≈ 0.149 µM); in the series on CK98002 (Candida krusei), 0.37 µg/mL (≈ 0.696 µM). The “CYP11B1 inhibition” value in the series on CYP11B1 is given as “strong inhibitor”. Besides, in the series on CYP11B2, the CYP11B2 inhibition is given as 100%.
